Tests used:
[1] = system: patients with schizophrenia; assay: Clinical data: case reports (Cases 1 to 6) of schizophrenic patients on neuroleptics, L-Dopa and TRH; type: in vivo, human
[2] = system: psychotic patients / patients with schizophrenia; type: in vivo, human
Description: L-Pyroglutamyl-L-histidyl-L-prolinamide (thyrotropin-releasing hormone; hereinafter referred to as TRH) is a hypothalamic hormone which can be synthesized chemically and has been used as a diagnostic agent or as an antidepressant. […] It is known, however, that, although the onset of the effect of TRH on psychotic patients is very rapid, the duration of its effects is rather short. Thus, TRH alone cannot be a practical remedy for psychotic patients.
On the other hand, according to the present invention, a deterioration of the patients considered to be caused by TRH in the combined use is negligible and, therefore, determination of the dose is very easy.
Furthermore, although the effect of TRH on pyschotic patients is known to be transient, t therapeutic effects in accordance with the present invention last long even after withdrawal of TRH or its physiologically acceptable salts, alone or together with neuroleptics, which are administered to patients in combination. In this way, long lasting therapeutic effects, as well as the rapid onset of the effects are another excellent characteristic of this invention.

[3] = system: patients with schizophrenia; assay: Clinical data: case reports (Cases 1 to 6) of schizophrenic patients on neuroleptics, L-Dopa and TRH; type: in vivo, human; remark: listed apart in the source
Description: The following clinical data as well as Examples are only for illustrative purposes and are not at all intended to limit or to restrict the scope of the invention.
On April 14, they came back to their home town and, on the following day, was admitted to hospital.
On July 10, TRH tartrate monohydrate 4 mg. (2.73 mg. in terms of free TRH) per day (2 mg. each in the morning and night) began to be administered orally in combination with thioridazine, 50 mg. per day, and trihexyphenydyl 6 mg. per day. […] On July 31, the administration of TRH was stopped.
In February 1961, the patient was admitted for the first time to Y hospital in a state of catatonic stupor. After receiving electroshock therapy and chlorpromazine, they were discharged from the hospital on April 19 of the same year. On May 26, 1966 they were again admitted to the same hospital this time in a state of catatonic excitement. […] Beginning on April 3, 1971, thioridazine, 300 mg. per day, and L-Dopa, 400 mg. daily, were added to the therapeutic regime. […] From the 9th day on, the dosage of L-Dopa was increased to 600 mg. daily. […] At the 19th week, the dosage of L-Dopa was reduced to 400 mg. and the drug was discontinued that week-end.
Hospital therapy was started with chlorpromazine, 400 mg. per day, and spiperone, 1 mg. per day. […] Consequently, the dosage of chlorpromazine was raised to 500 mg. per day. […] Beginning on August 9, penfluridol, 20 to 40 mg. twice weekly, was added to the preceding regimen of chlorpromazine 500 mg. daily. On June 26, 1973, the dosage of chlorpromazine was reduced to 200 mg. per day. Shortly thereafter, L-Dopa, 100 mg. daily, was added to the regimen from July 5 on. The dosage of L-Dopa was then increased gradually up to 600 mg. per day and finally discontinued on August 30.
On July 2, 1974, they were started on clocapramine, 75 mg. daily, to which TRH tartrate monohydrate, 4 mg. (2.73 mg. in terms of free TRH) daily, was orally added from July 29 on.

[4] = system: psychotic patients / patients with schizophrenia; details: cited from earlier work

## O=C(CCCN1CCC(O)(c2ccc(Cl)cc2)CC1)c1ccc(F)cc1 [Haloperidol]
[1]; 4 mg daily initially, increased up to 100 mg
  Clinical outcome, Case 4, haloperidol: failed to elicit any appreciable symptomatic response

## N[C@@H](Cc1ccc(O)c(O)c1)C(=O)O [L-Dopa, L-3,4-dihydroxyphenylalanine]
[1]; L-Dopa 300 mg daily with thioridazine 200 mg daily
  Clinical outcome, Case 3, L-Dopa with thioridazine: their spontaneity increased to an extent greater than that achieved before
[1]; L-Dopa 100 up to 600 mg per day added to chlorpromazine 200 mg per day and penfluridol, autism and abulia persisted
  Clinical outcome, Case 2, L-Dopa therapy (1973): His general clinical picture improved to a considerable extent
[1]; after about 5 months of usage with thioridazine
  Time condition remained the same after withdrawal of L-Dopa, Case 3: about 4 months
[1]; person, L-Dopa 400 mg with chlorpromazine 300 mg per day, end of 3rd week
  Clinical outcome, Case 3, L-Dopa with chlorpromazine: an appreciable improvement in their facial expression
[1]; with chlorpromazine 300 mg per day
  Side effects, Case 3, L-Dopa 1000 mg daily: they seemed irritated to some extent and complained of sleeping trouble
[1]; with chlorpromazine 300 mg per day, led to discontinuation
  Side effects, Case 3, L-Dopa 1200 mg: appearance of auditory hallucination
[2]; human, in vivo
  Side-effects of L-Dopa in combined use: an excessive does of L-Dopa results in the production of side-effects in the patients
[2]; schizophrenia, observed by the present inventors
  Effect of L-Dopa in small doses with conventionally used neuroleptics: marked improvement of the overall clinical picture in schizophrenia
[3]; person, L-Dopa 400-600 mg daily with thioridazine 300 to 100 mg per day, 19th week
  Clinical outcome, Case 2, L-Dopa with thioridazine (1971): had no morbid experience and appeared to have a clear insight

## NC(=O)[C@@H]1CCCN1C(=O)[C@H](Cc1cnc[nH]1)NC(=O)[C@@H]1CCC(=O)N1 [TRH, L-Pyroglutamyl-L-histidyl-L-prolinamide]
[4]; The Lancet, July 7, 1973, pages 43 and 44
  Effect of TRH alone in patients with schizophrenia: produce emotional warmth, lucidity of though and accessibility of psychotherapy
[4]; psychotic patients
  Duration of effects of TRH alone: rather short
  Onset of effect of TRH alone: very rapid
[1]; TRH stopped July 31, other drugs continued
  Persistence of remission after withdrawal of TRH, Case 1: His state of remission has been maintained until now
[1]; TRH stopped on 15th day
  Persistence of improvement after withdrawal of TRH, Case 5: the improvement has continued even after withdrawal of TRH
[1]; TRH tartrate monohydrate 8 mg daily (5.46 mg free TRH) orally with thioridazine 200 mg daily for two weeks, from 4th day
  Clinical outcome, Case 3, TRH with thioridazine: Their participation in work and recreational activities became more positive and their action became more agile than when they were placed on L-Dopa
[1]; i.v. TRH, patient felt light in the head and free from depressed feeling
  Onset of subjective effect, Case 6: One hour after the first injection
[1]; on thioridazine alone
  Persistence of effect of TRH therapy after discontinuation, Case 3: two
[1]; person, 730 μg TRH tartrate monohydrate (500 μg free TRH)/day i.v., 5 injections, with perphenazine 12 mg/day, diazepam 10 mg/day, vegetamim B 1 tablet/day
  Clinical outcome, Case 6, intravenous TRH with neuroleptics: Remarkable improvement in the symptoms was recognized subjectively as well as objectively
[2]; human, in vivo
  Deterioration of the patients considered to be caused by TRH in the combined use: negligible
[3]; on clocapramine 75 mg daily alone, remission maintained most of the time
  Time remission maintained after withdrawal of TRH, Case 2: 4 months

## CN(C)CCCN1c2ccccc2Sc2ccc(Cl)cc21 [chlorpromazine, Chlorpromazine]
[1]; person, initial 100 mg daily, gradually increasing dose
  Clinical outcome, Case 4, oral chlorpromazine: without result
[3]; chlorpromazine 400 mg per day and spiperone 1 mg per day, other symptoms virtually unaffected
  Clinical outcome, Case 2, chlorpromazine with spiperone: their negativism and psychomotor excitement seemed to disappear almost completely

From patent US4088755A, “Medicament for remedying schizophrenia” (priority 1975, dated 1978)
